Consider 4 compounds from PubChem BioAssay AID1919001 (Molecular Pharmacology Branch, DTP, NCI, 2023).

Each structure is given as a SMILES string.
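Also: compound exposure lasted 7 days after spheroids had grown for 3 days.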

One experiment relates to 699152-130-R-J1-PDC complex spheroid growth. The experiment can be described thus: Anticancer human tumor 699152-130-R-J1-PDC patient-derived pancreatic carcinoma cell line growth inhibition [AhR]. The note with it: second compound 3.16 µM; first compound 0.0316 µM; stronger effect = lower value. An outline of the steps: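 Agents were dosed in half-log steps down from roughly clinical Cmax, or from 10 microM where Cmax was unknown, alone and with AhR antagonists. Read-out: percent test/control growth of tumor spheroids containing HUVEC and MSC stromal cells.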
By viability, T/C is commonly meant the result in the treated group divided by that in the control group, in per cent. For `CC1COCCN1c1cc(-c2ccnn2C)c2ccnc(-c3ccn[nH]3)c2n1` (stereo unspecified) + CC(CO)NC(=O)c1cc(-c2ccc(Cl)cc2)nn(-c2cnn(C)c2)c1=O, the viability, T/C is 84.6%.

The experiment is the same for the next values; noted with them: second compound 3.16 µM; first compound 0.1 µM; stronger effect = lower value.
As for `CC1COCCN1c1cc(-c2ccnn2C)c2ccnc(-c3ccn[nH]3)c2n1` (stereo unspecified) + Cc1ccccc1N=Nc1ccc(NC(=O)c2ccnn2C)c(C)c1, the viability, T/C was 89.3%.

Take `NS(=O)(=O)OCC1CC(n2ccc3c(NC4CCc5ccccc54)ncnc32)CC1O` (stereo unspecified) + Cc1ccccc1N=Nc1ccc(NC(=O)c2ccnn2C)c(C)c1: the viability, T/C was 115%.

Regarding `COc1ccc([C@@H](O)c2cc(-c3ncnc4cc(N5CCOCC5)ccc34)c(F)cc2Cl)nn1` + Cc1ccccc1N=Nc1ccc(NC(=O)c2ccnn2C)c(C)c1, the viability, T/C is 98.4%.

`CC1COCCN1c1cc(-c2ccnn2C)c2ccnc(-c3ccn[nH]3)c2n1` (stereo unspecified) + CC(CO)NC(=O)c1cc(-c2ccc(Cl)cc2)nn(-c2cnn(C)c2)c1=O: the viability, T/C is 80.1%.

The experiment is the same for the next values; noted with them: second compound 3.16 µM; first compound 0.316 µM; stronger effect = lower value.
In the case of `CC1COCCN1c1cc(-c2ccnn2C)c2ccnc(-c3ccn[nH]3)c2n1` (stereo unspecified) + Cc1ccccc1N=Nc1ccc(NC(=O)c2ccnn2C)c(C)c1, the viability, T/C is 72.1%.

As for `NS(=O)(=O)OCC1CC(n2ccc3c(NC4CCc5ccccc54)ncnc32)CC1O` (stereo unspecified) + Cc1ccccc1N=Nc1ccc(NC(=O)c2ccnn2C)c(C)c1, the viability, T/C was 96.7%.

Consider `COc1ccc([C@@H](O)c2cc(-c3ncnc4cc(N5CCOCC5)ccc34)c(F)cc2Cl)nn1` + Cc1ccccc1N=Nc1ccc(NC(=O)c2ccnn2C)c(C)c1, for which the viability, T/C is 90%.

For `CC1COCCN1c1cc(-c2ccnn2C)c2ccnc(-c3ccn[nH]3)c2n1` (stereo unspecified) + CC(CO)NC(=O)c1cc(-c2ccc(Cl)cc2)nn(-c2cnn(C)c2)c1=O, the viability, T/C was 74%.

Still in this experiment, the particulars now being: second compound 3.16 µM; first compound 1 µM; stronger effect = lower value.
As to `CC1COCCN1c1cc(-c2ccnn2C)c2ccnc(-c3ccn[nH]3)c2n1` (stereo unspecified) + Cc1ccccc1N=Nc1ccc(NC(=O)c2ccnn2C)c(C)c1, the viability, T/C is 60.1%.

As for `NS(=O)(=O)OCC1CC(n2ccc3c(NC4CCc5ccccc54)ncnc32)CC1O` (stereo unspecified) + Cc1ccccc1N=Nc1ccc(NC(=O)c2ccnn2C)c(C)c1, the viability, T/C was 28.4%.

On to `COc1ccc([C@@H](O)c2cc(-c3ncnc4cc(N5CCOCC5)ccc34)c(F)cc2Cl)nn1` + Cc1ccccc1N=Nc1ccc(NC(=O)c2ccnn2C)c(C)c1, for which the viability, T/C is 86.5%.

Turning to `CC1COCCN1c1cc(-c2ccnn2C)c2ccnc(-c3ccn[nH]3)c2n1` (stereo unspecified) + CC(CO)NC(=O)c1cc(-c2ccc(Cl)cc2)nn(-c2cnn(C)c2)c1=O, the viability, T/C was 65%.

The same experiment, now with this note: second compound 3.16 µM; first compound 3.16 µM; stronger effect = lower value.
As to `NS(=O)(=O)OCC1CC(n2ccc3c(NC4CCc5ccccc54)ncnc32)CC1O` (stereo unspecified) + Cc1ccccc1N=Nc1ccc(NC(=O)c2ccnn2C)c(C)c1, the viability, T/C was 20.8%.

`COc1ccc([C@@H](O)c2cc(-c3ncnc4cc(N5CCOCC5)ccc34)c(F)cc2Cl)nn1` + Cc1ccccc1N=Nc1ccc(NC(=O)c2ccnn2C)c(C)c1: the viability, T/C is 61.9%.

The same experiment, now with this note: second compound 3.16 µM; first compound 10 µM; stronger effect = lower value.
With `NS(=O)(=O)OCC1CC(n2ccc3c(NC4CCc5ccccc54)ncnc32)CC1O` (stereo unspecified) + Cc1ccccc1N=Nc1ccc(NC(=O)c2ccnn2C)c(C)c1, the viability, T/C was 24.9%.

As to `COc1ccc([C@@H](O)c2cc(-c3ncnc4cc(N5CCOCC5)ccc34)c(F)cc2Cl)nn1` + Cc1ccccc1N=Nc1ccc(NC(=O)c2ccnn2C)c(C)c1, the viability, T/C was 35.3%.

The experiment is the same for the next values; noted with them: second compound 10 µM; first compound 0.00316 µM; stronger effect = lower value.
For `CC1COCCN1c1cc(-c2ccnn2C)c2ccnc(-c3ccn[nH]3)c2n1` (stereo unspecified) + Cc1ccccc1N=Nc1ccc(NC(=O)c2ccnn2C)c(C)c1, the viability, T/C was 119%.

Consider `CC1COCCN1c1cc(-c2ccnn2C)c2ccnc(-c3ccn[nH]3)c2n1` (stereo unspecified) + CC(CO)NC(=O)c1cc(-c2ccc(Cl)cc2)nn(-c2cnn(C)c2)c1=O, for which the viability, T/C was 97.7%.

Still in this experiment, the particulars now being: second compound 10 µM; first compound 0.01 µM; stronger effect = lower value.
Regarding `CC1COCCN1c1cc(-c2ccnn2C)c2ccnc(-c3ccn[nH]3)c2n1` (stereo unspecified) + Cc1ccccc1N=Nc1ccc(NC(=O)c2ccnn2C)c(C)c1, the viability, T/C is 128%.

As for `CC1COCCN1c1cc(-c2ccnn2C)c2ccnc(-c3ccn[nH]3)c2n1` (stereo unspecified) + CC(CO)NC(=O)c1cc(-c2ccc(Cl)cc2)nn(-c2cnn(C)c2)c1=O, the viability, T/C is 82.7%.

The same experiment, now with this note: second compound 10 µM; first compound 0.0316 µM; stronger effect = lower value.
Consider `CC1COCCN1c1cc(-c2ccnn2C)c2ccnc(-c3ccn[nH]3)c2n1` (stereo unspecified) + Cc1ccccc1N=Nc1ccc(NC(=O)c2ccnn2C)c(C)c1, for which the viability, T/C was 103%.

Regarding `NS(=O)(=O)OCC1CC(n2ccc3c(NC4CCc5ccccc54)ncnc32)CC1O` (stereo unspecified) + Cc1ccccc1N=Nc1ccc(NC(=O)c2ccnn2C)c(C)c1, the viability, T/C was 122%.

Take `COc1ccc([C@@H](O)c2cc(-c3ncnc4cc(N5CCOCC5)ccc34)c(F)cc2Cl)nn1` + Cc1ccccc1N=Nc1ccc(NC(=O)c2ccnn2C)c(C)c1: the viability, T/C is 107%.

Take `CC1COCCN1c1cc(-c2ccnn2C)c2ccnc(-c3ccn[nH]3)c2n1` (stereo unspecified) + CC(CO)NC(=O)c1cc(-c2ccc(Cl)cc2)nn(-c2cnn(C)c2)c1=O: the viability, T/C is 81.5%.

The same experiment, now with this note: second compound 10 µM; first compound 0.1 µM; stronger effect = lower value.
Turning to `CC1COCCN1c1cc(-c2ccnn2C)c2ccnc(-c3ccn[nH]3)c2n1` (stereo unspecified) + Cc1ccccc1N=Nc1ccc(NC(=O)c2ccnn2C)c(C)c1, the viability, T/C is 116%.

Turning to `NS(=O)(=O)OCC1CC(n2ccc3c(NC4CCc5ccccc54)ncnc32)CC1O` (stereo unspecified) + Cc1ccccc1N=Nc1ccc(NC(=O)c2ccnn2C)c(C)c1, the viability, T/C was 125%.

Regarding `COc1ccc([C@@H](O)c2cc(-c3ncnc4cc(N5CCOCC5)ccc34)c(F)cc2Cl)nn1` + Cc1ccccc1N=Nc1ccc(NC(=O)c2ccnn2C)c(C)c1, the viability, T/C was 111%.

Take `CC1COCCN1c1cc(-c2ccnn2C)c2ccnc(-c3ccn[nH]3)c2n1` (stereo unspecified) + CC(CO)NC(=O)c1cc(-c2ccc(Cl)cc2)nn(-c2cnn(C)c2)c1=O: the viability, T/C is 73.9%.

Staying with this experiment, now noted: second compound 10 µM; first compound 0.316 µM; stronger effect = lower value.
On to `CC1COCCN1c1cc(-c2ccnn2C)c2ccnc(-c3ccn[nH]3)c2n1` (stereo unspecified) + Cc1ccccc1N=Nc1ccc(NC(=O)c2ccnn2C)c(C)c1, for which the viability, T/C is 80.8%.

With `NS(=O)(=O)OCC1CC(n2ccc3c(NC4CCc5ccccc54)ncnc32)CC1O` (stereo unspecified) + Cc1ccccc1N=Nc1ccc(NC(=O)c2ccnn2C)c(C)c1, the viability, T/C was 67.3%.

Regarding `COc1ccc([C@@H](O)c2cc(-c3ncnc4cc(N5CCOCC5)ccc34)c(F)cc2Cl)nn1` + Cc1ccccc1N=Nc1ccc(NC(=O)c2ccnn2C)c(C)c1, the viability, T/C is 110%.

`CC1COCCN1c1cc(-c2ccnn2C)c2ccnc(-c3ccn[nH]3)c2n1` (stereo unspecified) + CC(CO)NC(=O)c1cc(-c2ccc(Cl)cc2)nn(-c2cnn(C)c2)c1=O: the viability, T/C was 64.6%.

The experiment is the same for the next values; noted with them: second compound 10 µM; first compound 1 µM; stronger effect = lower value.
`CC1COCCN1c1cc(-c2ccnn2C)c2ccnc(-c3ccn[nH]3)c2n1` (stereo unspecified) + Cc1ccccc1N=Nc1ccc(NC(=O)c2ccnn2C)c(C)c1: the viability, T/C is 65.9%.

As to `NS(=O)(=O)OCC1CC(n2ccc3c(NC4CCc5ccccc54)ncnc32)CC1O` (stereo unspecified) + Cc1ccccc1N=Nc1ccc(NC(=O)c2ccnn2C)c(C)c1, the viability, T/C was 32.9%.

As to `COc1ccc([C@@H](O)c2cc(-c3ncnc4cc(N5CCOCC5)ccc34)c(F)cc2Cl)nn1` + Cc1ccccc1N=Nc1ccc(NC(=O)c2ccnn2C)c(C)c1, the viability, T/C is 94.5%.

Consider `CC1COCCN1c1cc(-c2ccnn2C)c2ccnc(-c3ccn[nH]3)c2n1` (stereo unspecified) + CC(CO)NC(=O)c1cc(-c2ccc(Cl)cc2)nn(-c2cnn(C)c2)c1=O, for which the viability, T/C was 58.1%.

The experiment is the same for the next values; noted with them: second compound 10 µM; first compound 3.16 µM; stronger effect = lower value.
As to `NS(=O)(=O)OCC1CC(n2ccc3c(NC4CCc5ccccc54)ncnc32)CC1O` (stereo unspecified) + Cc1ccccc1N=Nc1ccc(NC(=O)c2ccnn2C)c(C)c1, the viability, T/C was 27.2%.

As to `COc1ccc([C@@H](O)c2cc(-c3ncnc4cc(N5CCOCC5)ccc34)c(F)cc2Cl)nn1` + Cc1ccccc1N=Nc1ccc(NC(=O)c2ccnn2C)c(C)c1, the viability, T/C was 61%.

The experiment is the same for the next values; noted with them: second compound 10 µM; first compound 10 µM; stronger effect = lower value.
Consider `NS(=O)(=O)OCC1CC(n2ccc3c(NC4CCc5ccccc54)ncnc32)CC1O` (stereo unspecified) + Cc1ccccc1N=Nc1ccc(NC(=O)c2ccnn2C)c(C)c1, for which the viability, T/C was 30.8%.

Regarding `COc1ccc([C@@H](O)c2cc(-c3ncnc4cc(N5CCOCC5)ccc34)c(F)cc2Cl)nn1` + Cc1ccccc1N=Nc1ccc(NC(=O)c2ccnn2C)c(C)c1, the viability, T/C is 31.1%.
